The source of these data is PMC3666196, “Formulation and Particle Size Reduction Improve Bioavailability of Poorly Water-Soluble Compounds with Antimalarial Activity” (Malaria Research and Treatment, 2013).

A short description of data set [1]: Particle size measurement by laser scattering (Horiba LA-950) and stability of suspensions stored at 4°C. Format: physicochemical. As to the method:
The particle size was measured using a Horiba LA-950 particle size distribution analyzer (Kyoto, Japan), based on laser scattering. This particular instrument has a measurement period of less than 2 minutes from introduction of sample to data presentation with a sample requirement for testing of 2–5 mg per measurement in a 150 mL flow cell, depending on the sample type. All DQ and WR2996666 preparations were measured at a range of transmittance between 80–90%. Various volumes ranging from 100 μL to 800 μL of samples with about 5–10 mg solid from each vial were tested in this instrument to determine the mean particle size, which was the particle size parameter referred in the results. In order to see the change of particle size of various preparations over time, an accelerated stability study of prepared micro- and nanosuspensions were carried out at a temperature of 4°C for a period of up to 3 weeks. Accurately weighed amounts of samples were placed into glass vials with aluminum-lined caps and stored in a microprocessor-controlled humidity chamber, and the samples were then characterized as a function of exposed time. The stability of particles shown in Tables 1 and 2 was some of the preparations evaluated in this study. Generally, the particles in aqueous suspension dosed in our animals were stable for at least 3 weeks.

A short description of data set [2]: HPLC check of drug integrity after formulation and HPH. As to conditions: any of the preparations including microparticles and nanoparticles. In kind it is physicochemical. The protocol: The rehydrated DQ nanoparticle formulations were evaluated by particle size measurement, determination of drug concentration in the whole suspension as well as in the fine particles less than […], and PK study in drug dosed animals. The particle size was monitored throughout the preparation procedure and before and after animal studies. To ensure that there was no change of the drug integrity in any of the formulation procedure, drug concentrations and chromatography profiles of the drug molecule identity were examined by an Agilent HPLC (Agilent Technologies, Foster City, CA) with an isocratic mobile phase of 20% water and 80% acetonitrile (0.1% formic acid contained in water and acetonitrile, resp.). All drug preparations in aqueous system were diluted in methanol with vigorous vortex and then in acetonitrile for HPLC analysis. This was done to obtain complete extraction of the compound prior to loading the samples to HPLC. To evaluate the amount of DQ in the fine particles, formulation suspensions were prepared in the amount of 10 mg/mL of DQ in water, incubated at 37°C for 2 hours and passed through a […] size filter. […] In order to determine the actual dosage of the drug for animal studies, the concentration of the drug used for dosing animals was determined by HPLC without prior particle size fractionation with filtration.

On the set-up of data set [3]: method as in earlier work. The note with it: buffered water pH 4–9; cited from earlier work.
On the set-up of data set [4]: method as in PMID 11000543. The note with it: formulated into various solid dispersions; cited from earlier work.

On to `CCCCCCCCCCOc1cc2c(O)c(C(=O)OCC)cnc2cc1OCC` [DQ, ethyl 6-decyloxy-7-ethoxy-4-hydroxy-3-quinolinecarboxylate, reference compound], for which the “Particle size of generated nanoparticles” value in data set [1] (DQ formulation with poloxamer 407 as surfactant, after HPH) is more than 0.5 μm. Moreover, the Particle size in data set [1] (DQ in water or HECT suspension, method HG (homogenizer with generator), stored at 4°C, Week 1) turned out to be 99.23 μm; in data set [1] (DQ suspension in HECT, method US (ultra-sonicator), stored at 4°C, Week 1), 36.62 μm; in data set [1] (DQ suspension, method HG, stored at 4°C, Mean of weeks 1-3), 102.04 μm; in data set [1] (DQ suspension, method HG, stored at 4°C, Week 2), 101.33 μm; in data set [1] (DQ suspension, method HG, stored at 4°C, Week 3), 105.56 μm; in data set [1] (DQ suspension, method US, stored at 4°C, Mean of weeks 1-3) it was 36.88 μm. Besides, the Particle size in data set [1] (DQ suspension, method US, stored at 4°C, Week 2) is 36.97 μm; in data set [1] (DQ suspension, method US, stored at 4°C, Week 3), 36.92 μm; in data set [1] (DQ, method SD (solid dispersion) plus HPH, in water, stored at 4°C, Week 1), 0.401 μm; in data set [1] (DQ, method SD plus HPH, stored at 4°C, Mean of weeks 1-3), 0.392 μm; in data set [1] (DQ, method SD plus HPH, stored at 4°C, Week 2) it was 0.384 μm; in data set [1] (DQ, method SD plus HPH, stored at 4°C, Week 3), 0.377 μm. For the same compound, the “Particle size of DQ formulations” value in data set [1] (solid dispersion with polymers and surfactants, sonication followed by HPH at 1500–2500 bars, 120 homogenization cycles) is given as 0.2–0.4 μm. In addition, in data set [2], the “Chromatography profile (mass quantity, retention time) after formulation process and HPH” value is listed as “no change in chromatography profile”. Besides, the Solubility in water in data set [3] is less than 0.01 µg/mL.

For `CCCCN(CCCC)CCC(O)c1cc2c(Cl)cc(Cl)cc2c2cc(C(F)(F)F)ccc12` (stereo not drawn) [halofantrine], in data set [4], the “Increase in absolute bioavailability” value is listed as “five- to seven”.

Take `[H]/N=C(/N=C1NC(=O)C(=O)N1C)Nc1ccc(Cl)c(Cl)c1` [WR299666, (E)-1-(3,4-dichlorophenyl)-3-(1-methyl-4,5-dioxoimidazolidin-2-ylidene) guanidine]: the Particle size is on record as 0.38–0.48 μm in data set [1] (WR299666, HPH at 2500 bars in 6 homogenization cycles); 42.54 μm in data set [1] (WR299666 in water or HECT suspension, method Grinder, stored at 4°C, Week 1); 42.22 μm in data set [1] (WR299666 suspension, method Grinder, stored at 4°C, Mean of weeks 1-3); 41.07 μm in data set [1] (WR299666 suspension, method Grinder, stored at 4°C, Week 2); 43.05 μm in data set [1] (WR299666 suspension, method Grinder, stored at 4°C, Week 3); 61.88 μm in data set [1] (WR299666 suspension, method HG, stored at 4°C, Mean of weeks 1-3). The Particle size in data set [1] (WR299666 suspension, method HG, stored at 4°C, Week 1) was found to be 66.31 μm; in data set [1] (WR299666 suspension, method HG, stored at 4°C, Week 2), 71.85 μm; in data set [1] (WR299666 suspension, method HG, stored at 4°C, Week 3), 47.49 μm; in data set [1] (WR299666 suspension, method HPH, stored at 4°C, Mean of weeks 1-3), 0.406 μm; in data set [1] (WR299666 suspension, method HPH, stored at 4°C, Week 1), 0.376 μm; in data set [1] (WR299666 suspension, method HPH, stored at 4°C, Week 2), 0.397 μm. In addition, the Particle size in data set [1] (WR299666 suspension, method HPH, stored at 4°C, Week 3) is reported as 0.445 μm; in data set [1] (WR299666 suspension, method US, stored at 4°C, Mean of weeks 1-3) it was 1.5 μm; in data set [1] (WR299666 suspension, method US, stored at 4°C, Mean of weeks 1-3, listed as W299666), 1.50 μm; in data set [1] (WR299666 suspension, method US, stored at 4°C, Week 1), 1.52 μm; in data set [1] (WR299666 suspension, method US, stored at 4°C, Week 2), 1.58 μm; in data set [1] (WR299666 suspension, method US, stored at 4°C, Week 3), 1.41 μm. For the same compound, the “Average particle size of starting raw material” value in data set [1] (without treatment) is “above 70 μm”.
